Laboratory results from patent publication US20030194719A1, “Tpst-assay for diagnosis of autism and related disorders” (priority 2000, published 2003).

Test system: Tyrosyl protein sulphotransferase (TPST)
Experiment: TPST activity assay in platelets from normal healthy blood donors (35S transfer from PAPS35 to EAY substrate)
Format: biochemical, human
Settings: for TPST activity (0 μM = 100): Table 7; for TPST activity (0 μM = 100.0): Table 5
Procedure: The activity of sulphotransferases can be measured by monitoring the transfer of ^35S from the sulphate donor, PAPS^35, to the product, in this case the synthetic tyrosine substrate EAY. This assay uses platelets from control subjects (n=5) and those patients suffering from a particular disorder, selected from autism (n=14), irritable bowel syndrome (n=3) schizophrenia (gluten-sensitive)(n=4), food allergy (gluten, milk) (n=3) and depression (n=2).
Reaction mixtures were incubated for 50 minutes at 37° C. and reactions were stopped by barium acetate. Unreacted sulphate, proteins and nucleotides were precipitated by zinc sulphate and barium hydroxide. Within the reaction there is a positive and negative control. The positive control is termed 100%, and represents the total amount of radioactivity present in the hot PAPS^35 sample. The negative control is the “no-enzyme” reaction, this represents the amount of sulphate transferred to the product when no enzyme is present, i.e. the chemical reaction. The blank for the reaction is made up without PAPS^35 and without enzyme.
10 ml of whole blood was taken from patients and the blood cells removed. The remaining plasma was centrifuged at 8000 g for 5 mins to sediment the platelets. This platelet pellet was resuspended in 5 ml 10 mM phosphate buffered saline (PBS) containing 10 mM EDTA, recentrifuged at 2000 g at 4° C. for 30 min. […] The platelets were sonicated for 12×10 second bursts at 4° C. The platelet sonicates were stored in 1 ml portions at −70° C. prior to use.
Substrate: 10 μl EAY (300 μM; poly (Glu, Ala, Tyr) 6:3:1) was used in each test assay, to give a final concentration in the reaction of 20 μM. This solution was made up in MES reaction buffer.
Reaction mixtures were made up as in the table above. To begin the assay, platelet homogenate (20 μl) and PAPS^35 (20 μl) were added at 30-second intervals to a final volume of 150 μl. The reaction mixture was then incubated at 37° C. for 40 min. The reaction is stopped by the addition of 200 μl-barium acetate (0.1 M) and the tubes were vortexed and placed on ice for […].
Unreacted sulphate was then precipitated by the addition of 0.1 M zinc sulphate (200 μl) and 0.1 M barium hydroxide (200 μl). The tubes were vortexed and centrifuged at 6500 rpm for 3 min.
Repeat step 3. Supernatant (500 μl) was then added to scintillation fluid (3.5 ml) and S^35 was counted in a Phillips scintillation counter.
Various compounds were investigated, including fatty acids, flavonoids and amino acids. […] Compounds were tested at the concentrations shown and were dissolved in buffer where possible or ethanol if not.
In the Example shown in Table 6 and FIG. 6 compounds were all dissolved in DMSO and tested at 25 μM.

[1] = Example 2, concentrations as in Table 2, normal human platelets
[2] = Table 2, 100 μM, normal human platelets
[3] = Table 6, 25 μM, dissolved in DMSO, human platelets

O=C(O)CC(O)(CC(=O)O)C(=O)O [Citrate]
Effect on TPST activity (in words) [1]: increasing activity | % Control TPST Activity [2]: 113%

N[C@@H](CCC(=O)O)C(=O)O [Glutamate]
Effect on TPST activity (in words) [1]: decreased activity | % Control TPST Activity [2]: 67%

CCCCC/C=C\C/C=C\CCCCCCCC(=O)O [Linoleic Acid]
% Control TPST Activity [2]: 113%

O=c1cc(-c2ccccc2)oc2ccccc12 [Flavone]
Effect on TPST activity (in words) (Example 3, 25 μM, platelets): stimulation of TPST activity | % Control TPST Activity [3]: 180% | TPST activity (0 μM = 100) (flavonoid 0.5 μM): 80.3 | TPST activity (0 μM = 100) (flavonoid 1 μM): 96.4 | TPST activity (0 μM = 100) (flavonoid 2.5 μM): 93.5 | TPST activity (0 μM = 100) (flavonoid 5 μM): 102.3 | TPST activity (0 μM = 100) (flavonoid 10 μM): 126 | TPST activity (0 μM = 100) (flavonoid 25 μM): 172.8 | TPST activity (0 μM = 100) (flavonoid 50 μM): 230.2 | TPST activity (0 μM = 100) (flavonoid 100 μM): 307.3

CCCCC/C=C\C/C=C\C/C=C\CCCCC(=O)O [GLA, gamma linolenic acid]
TPST activity (0 μM = 100.0) (fatty acid 10 μM): 78.8 | TPST activity (0 μM = 100.0) (fatty acid 25 μM): 72.6 | TPST activity (0 μM = 100.0) (fatty acid 50 μM): 71.3 | TPST activity (0 μM = 100.0) (fatty acid 100 μM): 61.2

O=c1c(-c2ccc(O)cc2)coc2cc(O)cc(O)c12 [Genistein]
Effect on TPST activity (in words) (Example 2, 100 μM): inhibitory effect on TPST activity | Effect on TPST activity (in words) (Example 3, 25 μM, platelets): stimulation of TPST activity | Effect on TPST activity (in words) (Example 3, 25 μM, platelets, listed as genistein): TPST enhancing effect | % Control TPST Activity [2]: 74% | % Control TPST Activity [3]: 117% | TPST activity (0 μM = 100) (flavonoid 2.5 μM): 86.5 | TPST activity (0 μM = 100) (flavonoid 5 μM): 83.4 | TPST activity (0 μM = 100) (flavonoid 10 μM): 75.8 | TPST activity (0 μM = 100) (flavonoid 25 μM): 50.9 | TPST activity (0 μM = 100) (flavonoid 50 μM): 62

O=c1cc(-c2ccc(O)cc2)oc2cc(O)cc(O)c12 [Apigenin]
% Control TPST Activity [3]: 31%

O=c1cc(-c2cc(O)c(O)c(O)c2O)oc2cc(O)ccc12 [2′,3′,4′,5′,7 OH Flavone]
% Control TPST Activity [3]: 38%

O=C(O)CCC(=O)O [Succinate]
Effect on TPST activity (in words) [1]: decreasing sulphation | % Control TPST Activity [2]: 59%

O=c1cc(-c2ccc(O)c(O)c2)oc2ccccc12 [3′,4′ OH Flavone]
% Control TPST Activity [3]: 55%

Oc1cc(O)c2c(c1)O[C@H](c1ccc(O)c(O)c1)[C@@H](O)C2 [(+)-Catechin]
% Control TPST Activity [3]: 74%

O=c1cc(-c2ccccc2)oc2cccc(O)c12 [5 OH Flavone]
% Control TPST Activity [3]: 152%

CCCCCCCC/C=C\CCCCCCCC(=O)O [Oleic Acid]
Effect on TPST activity (in words) [1]: slight stimulation of TPST activity | % Control TPST Activity [2]: 111% | TPST activity (0 μM = 100.0) (fatty acid 0.5 μM): 74.5 | TPST activity (0 μM = 100.0) (fatty acid 1 μM): 61.5 | TPST activity (0 μM = 100.0) (fatty acid 2.5 μM): 69.2 | TPST activity (0 μM = 100.0) (fatty acid 5 μM): 51.4 | TPST activity (0 μM = 100.0) (fatty acid 10 μM): 60.5 | TPST activity (0 μM = 100.0) (fatty acid 25 μM): 56.2 | TPST activity (0 μM = 100.0) (fatty acid 50 μM): 54.3 | TPST activity (0 μM = 100.0) (fatty acid 100 μM): 29.5

O=c1cc(-c2ccccc2)oc2cc(O)c(O)c(O)c12 [5′,6′,7′ OH Flavone]
% Control TPST Activity [3]: 1%
